Laboratory results: patent publication US7659270B2, “Hepatitis C virus inhibitors” (Bristol-Myers Squibb Company, priority 2006, dated 2010)
Read-outs that look alike come from different tables or passages of the source.

System: HCV 1b-377-neo replicon cells
Experiment: HCV replicon assay (HCV 1b-377-neo replicon cells)
Assay type: cell-based, Hepatitis C virus genotype 1b
Procedure, shortened: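 HCV genotype 1b (1b-377-neo) replicon cells, run as a validated replicon assay; parallel testing in replicon cells carrying the NS5A Y2065H resistance mutation.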

[1] = Hepatitis C virus, read-out: EC50 range against HCV 1b (Range)

Compound	EC50 [1] [nM]	also measured
C[C@H](NC(=O)[C@@H](c1ccccc1)N(C)C)c1ncc(-c2cnc(-c3ccc(-c4cnc([C@@H]5CCCN5C(=O)[C@@H](c5ccccc5)N(C)C)[nH]4)cc3)cn2)[nH]1 [Example 152j-18, (2R)-2-(dimethylamino)-N-((1S)-1-(5-(5-(4-(2-((2S)-1-((2R)-2-(dimethylamino)-2-phenylacetyl)-2-pyrrolidinyl)-1H-imidazol-5-yl)phenyl)-2-pyrazinyl)-1H-imidazol-2-yl)ethyl)-2-phenylacetamide]	0.01 to 0.999	
COC(=O)N[C@@H](C(=O)N[C@@H](C)c1ncc(-c2cnc(-c3ccc(-c4cnc([C@@H]5CCCN5C(=O)[C@H](NC(=O)OC)c5ccccc5)[nH]4)cc3)cn2)[nH]1)c1ccccc1 [Example 152j-19, methyl ((1R)-2-((2S)-2-(5-(4-(5-(2-((1S)-1-(((2R)-2-((methoxycarbonyl)a-mino)-2-phenyl-acetyl)amino)eth-yl)-1H-imidazol-5-yl)-2-pyrazinyl)phenyl)-1H-imidazol-2-yl)-1-pyrrolidinyl)-2-oxo-1-phenylethyl)carbamate]	0.01 to 0.999	
COC(=O)N[C@@H](C(=O)N1CCC[C@H]1c1nc(-c2cnc(-c3ccc(-c4cnc([C@@H]5CCCN5C(=O)[C@H](NC(=O)OC)c5ccccc5)[nH]4)c(F)c3)nc2)c[nH]1)c1ccccc1 [Example D69, methyl ((1R)-2-((2S)-2-(5-(2-(3-fluoro-4-(2-((2S)-1-((2R)-2-((methoxy-carbonyl)a-mino)-2-phenyl-acetyl)-2-pyrroli-dinyl)-1H-imidazol-5-yl)phenyl)-5-pyrimi-dinyl)-1H-imida-zol-2-yl)-1-pyrrolidinyl)-2-oxo-1-phenyl-eth-yl)carbamate]	0.01 to 0.999	
COC(=O)N[C@@H](C(=O)N1CCC[C@H]1c1ncc(-c2ccc(-c3ccc(-c4cnc([C@@H]5CCCN5C(=O)C5CCN(C)CC5)[nH]4)cn3)cc2)[nH]1)c1ccccc1 [Example 142, methyl ((1R)-2-((2S)-2-(5-(4-(5-(2-((2S)-1-((1-methyl-4-piperidinyl)carbonyl)-2-pyrrolidinyl)-1H-imidazol-5-yl)-2-pyridinyl)phenyl)-1H-imidazol-2-yl)-1-pyrrolidinyl)-2-oxo-1-phenylethyl)carbamate]	1 to 99	
COC(=O)N[C@H](C(=O)N1CCC[C@H]1c1ncc(-c2ccc(-c3ccc(-c4cnc([C@@H]5CCCN5C(=O)[C@@H](NC(=O)OC)C(C)C)[nH]4)cc3CN(C)C)cc2)[nH]1)C(C)C [Example M120, methyl((1S)-1-(((2S)-2-(5-(2-((dimethylamino)methyl)-4′-(2-((2S)-1-((2S)-2-((methoxycarbonyl)amino)-3-methylbutanoyl)-2-pyrrolidinyl)-1H-imidazol-5-yl)-4-biphenylyl)-1H-imidazol-2-yl)-1-pyrrolidinyl)carbonyl)-2-methylpropyl)carbamate]	100 to 999	
C[C@H](NC(=O)[C@@H](c1ccccc1)N(C)C)c1ncc(-c2ccc(-c3ccc(-c4cnc([C@H](C)NC(=O)[C@@H](c5ccccc5)N(C)C)[nH]4)cn3)cc2)[nH]1 [Example 152j-24, (2R)-2-(dimethylamino)-N-((1S)-1-(5-(6-(4-(2-((1S)-1-(((2R)-2-(dimethylamino)-2-phenyl-acetyl)amino)eth-yl)-1H-imidazol-5-yl)phenyl)-3-pyridinyl)-1H-imidazol-2-yl)ethyl)-2-phenylacetamide]	0.01 to 0.999	
COC(=O)N[C@@H](C(=O)N[C@@H](C)c1ncc(-c2ccc(-c3ccc(-c4cnc([C@@H]5CCCN5C(=O)[C@H](NC(=O)OC)c5ccccc5)[nH]4)nn3)cc2)[nH]1)c1ccccc1 [Example 152j-14, methyl ((1R)-2-((2S)-2-(5-(6-(4-(2-((1S)-1-(((2R)-2-((methoxycarbonyl)a-mino)-2-phenyl-acetyl)amino)eth-yl)-1H-imidazol-5-yl)phenyl)-3-pyridazinyl)-1H-imidazol-2-yl)-1-pyrrolidinyl)-2-oxo-1-phenylethyl)carbamate]	1 to 99	
CN(C)[C@@H](C(=O)N1CCC[C@H]1c1ncc(-c2ccc(-c3ccc(-c4cnc([C@@H]5CCCN5C(=O)[C@@H](c5ccccc5)N(C)C)[nH]4)cc3C(F)(F)F)cc2)[nH]1)c1ccccc1 [Example 130, (1R,1′R)-2,2′-((2-(trifluoromethyl)-4,4′-biphenyldiyl)bis(1H-imidazole-5,2-diyl(2S)-2,1-pyrrolidinediyl))bis(N,N-dimethyl-2-oxo-1-phenylethanamine)]	0.01 to 0.999	
COC(=O)N[C@@H](C(=O)N1CCC[C@H]1c1ncc(-c2cnc(-c3cnc(-c4cnc([C@@H]5CCCN5C(=O)[C@H](NC(=O)OC)c5ccccc5)[nH]4)cn3)cn2)[nH]1)c1ccccc1 [Example 153c-6, dimethyl (2,2′-bipyrazine-5,5′-diylbis(1H-imi-dazole-5,2-diyl (2S)-2,1-pyrrolidine-diyl((1R)-2-oxo-1-phe-nyl-2,1-ethane-diyl)))biscarba-mate]	1 to 99	
COC(=O)N[C@@H](C(=O)N[C@@H](C)c1ncc(-c2ccc(-c3cnc(-c4cnc([C@@H]5CCCN5C(=O)[C@H](NC(=O)OC)c5ccccc5)[nH]4)cn3)cc2)[nH]1)c1ccccc1 [Example 152j-28]	0.01 to 0.999	
C[C@H](NC(=O)[C@@H](c1ccccc1)N(C)C)c1ncc(-c2cnc(-c3ccc(-c4cnc([C@@H]5CCCN5C(=O)[C@@H](c5ccccc5)N(C)C)[nH]4)cc3)nc2)[nH]1 [Example 152j-16, (2R)-2-(dimethylamino)-N-((1S)-1-(5-(2-(4-(2-((2S)-1-((2R)-2-(dimethylamino)-2-phenylacetyl)-2-pyrrolidinyl)-1H-imidazol-5-yl)phenyl)-5-pyrimidinyl)-1H-imidazol-2-yl)ethyl)-2-phenylacetamide]	0.01 to 0.999	
COC(=O)N[C@@H](C(=O)N1CCC[C@H]1c1ncc(-c2ccc(-c3cnc(-c4cnc([C@@H]5CCCN5C(=O)[C@H](NC(=O)OC)c5ccccc5)[nH]4)cn3)cc2)[nH]1)c1ccccc1 [Example 152j-8, methyl ((1R)-2-((2S)-2-(5-(5-(4-(2-((2S)-1-((2R)-2-((methoxycarbonyl)a-mino)-2-phenylacetyl)-2-pyrrolidinyl)-1H-imidazol-5-yl)phenyl)-2-pyrazinyl)-1H-imidazol-2-yl)-1-pyrrolidinyl)-2-oxo-1-phenylethyl)carbamate]	0.01 to 0.999	
O=C([C@H](O)c1ccccc1)N1CCC[C@H]1c1ncc(-c2ccc(-c3ccc(-c4cnc([C@@H]5CCCN5C(=O)[C@H](O)c5ccccc5)[nH]4)cn3)cc2)[nH]1 [Example 133, (1R)-2-((2S)-2-(5-(6-(4-(2-((2S)-1-((2R)-2-hydroxy-2-phenylacetyl)-2-pyrrolidinyl)-1H-imidazol-5-yl)phenyl)-3-pyridinyl)-1H-imidazol-2-yl)-1-pyrrolidinyl)-2-oxo-1-phenylethanol]	1 to 99	
COC(=O)N[C@@H](C(=O)N(C)[C@@H](C)c1ncc(-c2ccc(-c3ncc(-c4cnc([C@@H]5CCCN5C(=O)[C@@H](c5ccccc5)N5CCCCC5)[nH]4)cn3)cc2)[nH]1)c1ccccc1 [Example 152l-1, methyl ((1R)-2-(meth-yl((1S)-1-(4-(4-(5-(2-((2S)-1-((2R)-2-phenyl-2-(1-piperi-dinyl)acetyl)-2-pyrrolidinyl)-1H-imidazol-5-yl)-2-pyrimi-dinyl)phenyl)-1H-imidazol-2-yl)eth-yl)amino)-2-oxo-1-phenyl-ethyl)carbamate]	0.01 to 0.999	
CN(C)[C@@H](C(=O)N1CCC[C@H]1c1ncc(-c2ccc(-c3ccc(-c4cnc([C@@H]5CCCN5C(=O)[C@@H](c5ccccc5)N(C)C)[nH]4)nn3)cc2)[nH]1)c1ccccc1 [Example 152j-9, (1R)-2-((2S)-2-(5-(6-(4-(2-((2S)-1-((2R)-2-(dimethylamino)-2-phenylacetyl)-2-pyrrolidinyl)-1H-imidazol-5-yl)phenyl)-3-pyridazinyl)-1H-imidazol-2-yl)-1-pyrrolidinyl)-N,N-dimethyl-2-oxo-1-phenylethanamine]	1 to 99	
CN(C)[C@@H](C(=O)N1CCC[C@H]1c1ncc(-c2ccc(-c3ccc(-c4cnc([C@@H]5CCCN5C(=O)[C@@H](c5ccccc5)N(C)C)[nH]4)cc3)cc2)[nH]1)c1ccccc1 [Example 1, (1R,1′R)-2,2′-(4,4′-biphenyldiylbis(1H-imidazole-5,2-diyl(2S)-2,1-pyrrolidinediyl))bis(N,N-dimethyl-2-oxo-1-phenylethanamine)]	0.01 to 0.999	
CCC(C)NCC(=O)N1CCC[C@H]1c1ncc(-c2ccc(-c3ccc(-c4cnc([C@@H]5CCCN5C(=O)[C@@H](NC(=O)OC)C(C)C)[nH]4)cc3)cc2)[nH]1 (stereo partly drawn) [LS24]		EC50 (read-out: EC50 range against HCV 1b (Range)): 0.01 to 0.999 nM
CN(C)[C@@H](C(=O)N1CSC[C@H]1c1ncc(-c2ccc(-c3ccc(-c4cnc([C@@H]5CSCN5C(=O)[C@@H](c5ccccc5)N(C)C)[nH]4)cc3)cc2)[nH]1)c1ccccc1 [Example 148, (1R,1′R)-2,2′-(4,4′-biphenyldiylbis(1H-imidazole-5,2-diyl(4R)-1,3-thiazolidine-4,3-diyl))bis(N,N-dimethyl-2-oxo-1-phenylethanamine)]	1 to 99	
CN(C)[C@@H](C(=O)N1CCC[C@H]1c1ncc(-c2cnc(-c3cnc(-c4cnc([C@@H]5CCCN5C(=O)[C@@H](c5ccccc5)N(C)C)[nH]4)cn3)cn2)[nH]1)c1ccccc1 [Example 153c-5, (1R,1′R)-2,2′-(2,2′-bipyrazine-5,5′-diylbis(1H-imidazole-5,2-diyl (2S)-2,1-pyrrolidine-diyl))bis(N, N-dimeth-yl-2-oxo-1-phenyl-ethanamine)]	1 to 99	
CN(C)[C@@H](C(=O)N1CCC[C@H]1c1nc(-c2ccc(-c3ccc(-c4cn(C)c([C@@H]5CCCN5C(=O)[C@@H](c5ccccc5)N(C)C)n4)cc3)cc2)cn1C)c1ccccc1 (single isomer, unassigned) [Example 151 isomer 1]		EC50 (listed as 151 isomer 1, read-out: EC50 range against HCV 1b (Range)): 1 to 99 nM
COC(=O)N[C@@H](C(=O)N(C)[C@@H](C)c1ncc(-c2ccc(-c3ccc(-c4cnc([C@@H]5CCCN5C(=O)[C@@H](c5ccccc5)N5CCCCC5)[nH]4)cc3)cc2)[nH]1)c1ccccc1 [Example 131.1-2, methyl((1R)-2-(methyl((1S)-1-(5-(4′-(2-((2S)-1-((2R)-2-phenyl-2-(1-piperidinyl)acetyl)-2-pyrrolidinyl)-1H-imidazol-5-yl)-4-biphenylyl)-1H-imidazol-2-yl)ethyl)amino)-2-oxo-1-phenylethyl)carbamate]	0.01 to 0.999	
